{"source": "patent US20250025383A1", "about": "“EMOLLIENT COMPOSITION IN EMULSION FORM” (PIERRE FABRE MEDICAMENT, priority 2018, published 2025)", "key": {"[1]": {"conditions": "preservative not tested (nt) in emulsion; cited from earlier work"}, "[2]": {"experiment": "Measurement of consistency (TAXT+ texture analyser)", "type": "physicochemical", "conditions": "ingredient added to glycerol/Vaseline/liquid paraffin emulsion", "method": "The measurement of consistency is carried out at room temperature (around 20° C.) in a 250 mL glass jar filled to 200 g. The measurement is performed using a TAXT+type texture analyser (Swantec). The consistency of the product is represented by the maximum resistance force of the probe in the product, which is directly proportional to the measured mass. The consistency value is expressed in g.\n• 250 g glass jar filled to 200 g • P25 steel cylinder\n• Pre-speed: 4 mm/s • Speed: 8 mm/s • Post-speed: 8 mm/s • Displacement: 20 mm • Triggering threshold: 5 g\nFill the container (glass jar) without introducing air into the product.\nTap the jar so as to pack down the cream and to obtain the smoothest surface possible.\nMaintain the jar closed […] before carrying out the measurement."}}}
{"smiles": "O.O.O.O.O.O.O.O.O.O.[Na+].[Na+].[O-]B1OB2OB([O-])OB(O1)O2", "note": "[Sodium borate]", "values": [{"measurement": "Comments/other aspects", "setting": "[1]", "value": "irritant"}]}
{"smiles": "OB(O)O", "note": "[Boric acid]", "values": [{"measurement": "Comments/other aspects", "setting": "[1]", "value": "irritant"}]}
{"smiles": "CCCCC(CC)COCC(O)CO", "note": "(stereo not shown) [ethylhexyl glycerin]", "values": [{"measurement": "Effect on the consistency and/or the viscosity of the emulsion", "setting": "[2]", "value": "fluidification of the formula"}]}
{"smiles": "CCCCC(O)CO", "note": "(stereo not shown) [1,2 hexanediol]", "values": [{"measurement": "Effect on the consistency and/or the viscosity of the emulsion", "setting": "[2]", "value": "fluidification of the formula"}]}
